These results are taken from patent US5873359A, “Methods and devices for treating pulmonary vasoconstriction and asthma” (The General Hospital Corporation, priority 1994, dated 1999).

Data set [1] concerns methacholine bronchoconstriction. Kind of data set: SNAP aerosol during methacholine bronchoconstriction. Type of data set: in vivo, Hartley strain guinea pigs. The note with it: nebulized, 20 breaths, 5 guinea pigs (FIG. 16). How it is done:
Male Hartley strain guinea pigs (300-440g body wt) were anesthetized with α-chloralose (50 mg/kg) and urethane (500 mg/kg) (Drazen et al., J. Appl. Physiol. 48:613-618, 1980). A tracheostomy was performed, and the animals were intubated with a tubing adaptor (ID 1.65 mm) and ventilated with a small animal ventilator (Harvard Apparatus, a division of Ealing Scientific, Natick, Mass.) at 8 ml/kg and 60 breaths/min. A jugular vein was cannulated for intravenous administration of drugs. The chest was opened by bilateral excision of a portion of the ribs anteriorly so that the lungs were exposed to atmospheric pressure (Shore and Drazen, J. Appl. Physiol. 67:2504-2511, 1989). A positive end expiratory pressure of 3-4 cmH2 O was provided.
Guinea pigs were then placed inside a plethysmograph (Amdur and Mead, Am. J. Physiol. 192:363-368, 1958), that was connected to a large reservoir containing copper mesh to maintain the plethysmograph isothermal. Plethysmograph pressure was measured with a differential pressure transducer (Celesco, Canoga Park, Calif.); the opposite side of this transducer was connected to a similar reservoir. Pressure at the airway opening was measured from a side tap in the tracheal canula. Transpulmonary pressure was measured with a differential pressure transducer (Celesco) as the difference between airway opening pressure and the pressure inside the plethysmograph. […]

The conditions of data set [2]: cited from earlier work.
Data set [3] relates to experimentally-elevated PA pressure. Kind of data set: SNAP inhalation in sheep with experimentally-elevated PA pressure. The note with it: inhalation 1.3 mg/kg. Type of data set: in vivo. From the text:
This method will provide a longer-lasting beneficial effect than briefly inhaling gaseous NO, as the deposited NO-releasing compound would slowly release NO over a relatively long period of time. Formulation and dosage of a selected NO-releasing compound can be determined without undue experimentation by one of ordinary skill in the art. As one example, a typical single inhaled dose of an NO-releasing compound such as S-nitroso-N-acetylpenicillamine (SNAP) or S-nitrosocysteine in dry powder form could range from 60 to 650 μg of the active compound (NO) per kg bodyweight, for approximately an hour of dilation.

A further data set in a line: Stability of SNAP. The note with it: crystals at 0° C., up to 120 days, absorbance at 595 nm. Type of data set: physicochemical. From the text: Alternatively, a mammal (in particular, a human) with or at risk of developing bronchoconstriction (e.g., asthma) or reversible pulmonary vasoconstriction may be treated with a therapeutically-effective amount of a nitric oxide-releasing compound. Known nitric oxide-releasing compounds (also referred to as nitric oxide-donor or nitric oxide-generating compounds) useful in the methods and devices of the invention can be divided into three categories: (a) nitroso or nitrosyl compounds (e.g., S-nitroso-N-acetylpenicillamine, S-nitroso-L-cysteine, and nitrosoguanidine) characterized by an --NO moiety that is spontaneously released or otherwise transferred from the compound under physiological conditions such as obtain in the lung; (b) compounds in which NO is a ligand on a transition metal complex, and as such is readily released or transferred from the compound under physiological conditions (e.g., nitroprusside, NO-ferredoxin, or an NO-heme complex); and (c) nitrogen-containing compounds which are metabolized by enzymes endogenous to the respiratory and/or vascular system to produce the NO radical (e.g., arginine, glyceryl trinitrate, isoamyl nitrite, inorganic nitrite, azide, and hydroxylamine). […]

SMILES strings stand for the structures.

Turning to `CC(=O)N[C@H](C(=O)O)C(C)(C)SN=O` (racemic) [SNAP, S-nitroso-N-acetylpenicillamine], in data set [1], the “duration of reduction of lung resistance” value is reported as “about 15 minutes”; the lung resistance entry was “prompt and profound reduction of lung resistance”. Also, in data set [2] (solid form), the “stability of solid form” value is on record as “stable in its solid form”. Moreover, the “decomposition to release NO” value in data set [2] (under physiological conditions) is on record as “readily decomposes to release NO”. In addition, in data set [3], the PA pressure entry is reported as “prolonged reduction in PA pressure”. Also, the degradation on storage entry in “Stability of SNAP” is on record as “without detectable degradation”.
